From US11440899B2, “Pyrimidine TBK/IKKe inhibitor compounds and uses thereof” (Merck Patent GmbH, priority 2017, dated 2022)
Counter-ions that a name gives are not always drawn.

Assays:
IKKe = IKKe (Homo sapiens (Human), UniProt Q14164); experiment: IKKe Biochemical Assay
Summary of the method: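 Human IKKε activity was measured with compounds in a 10-point 1:4 dilution series, top concentration 30 uM final, in 1% DMSO final; 10 uM staurosporine served as the control. Enzyme and substrate were incubated 90 min at 25° C, then stopped, and substrate/product peaks were separated by microfluidic mobility-shift on a LabChip EZ Reader II.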

TBK1 = TBK1 (Homo sapiens (Human), UniProt Q9UHD2); experiment: TBK Biochemical Assay
Chain of TBK1 (Q9UHD2 whole entry, species assumed): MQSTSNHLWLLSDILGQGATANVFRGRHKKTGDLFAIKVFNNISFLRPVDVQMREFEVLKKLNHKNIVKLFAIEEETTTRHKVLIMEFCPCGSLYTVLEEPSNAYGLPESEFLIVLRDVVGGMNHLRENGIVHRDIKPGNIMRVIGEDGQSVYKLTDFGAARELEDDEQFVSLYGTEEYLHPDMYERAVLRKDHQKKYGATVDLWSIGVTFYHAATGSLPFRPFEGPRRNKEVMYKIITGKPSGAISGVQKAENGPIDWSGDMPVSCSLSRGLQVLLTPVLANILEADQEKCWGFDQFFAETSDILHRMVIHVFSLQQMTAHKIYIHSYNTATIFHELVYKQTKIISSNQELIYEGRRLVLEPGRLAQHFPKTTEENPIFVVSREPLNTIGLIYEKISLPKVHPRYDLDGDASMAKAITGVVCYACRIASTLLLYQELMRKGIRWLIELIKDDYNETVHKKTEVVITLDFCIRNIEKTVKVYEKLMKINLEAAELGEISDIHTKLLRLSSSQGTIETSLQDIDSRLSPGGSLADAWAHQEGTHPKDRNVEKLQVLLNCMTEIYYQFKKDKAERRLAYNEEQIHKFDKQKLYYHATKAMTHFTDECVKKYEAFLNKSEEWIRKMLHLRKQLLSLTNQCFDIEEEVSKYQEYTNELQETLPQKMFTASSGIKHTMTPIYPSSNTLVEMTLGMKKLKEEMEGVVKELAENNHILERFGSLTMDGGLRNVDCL
Summary of the method: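 Enzyme and substrate with compound (10-point 1:4 series, top 30 uM final, 1% DMSO) incubated 90 min at 25 °C, then stopped; substrate/product separated and read by LabChip mobility-shift, staurosporine 10 uM final as full-inhibition control.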

Chain of IKKe (Q14164 whole entry, species assumed): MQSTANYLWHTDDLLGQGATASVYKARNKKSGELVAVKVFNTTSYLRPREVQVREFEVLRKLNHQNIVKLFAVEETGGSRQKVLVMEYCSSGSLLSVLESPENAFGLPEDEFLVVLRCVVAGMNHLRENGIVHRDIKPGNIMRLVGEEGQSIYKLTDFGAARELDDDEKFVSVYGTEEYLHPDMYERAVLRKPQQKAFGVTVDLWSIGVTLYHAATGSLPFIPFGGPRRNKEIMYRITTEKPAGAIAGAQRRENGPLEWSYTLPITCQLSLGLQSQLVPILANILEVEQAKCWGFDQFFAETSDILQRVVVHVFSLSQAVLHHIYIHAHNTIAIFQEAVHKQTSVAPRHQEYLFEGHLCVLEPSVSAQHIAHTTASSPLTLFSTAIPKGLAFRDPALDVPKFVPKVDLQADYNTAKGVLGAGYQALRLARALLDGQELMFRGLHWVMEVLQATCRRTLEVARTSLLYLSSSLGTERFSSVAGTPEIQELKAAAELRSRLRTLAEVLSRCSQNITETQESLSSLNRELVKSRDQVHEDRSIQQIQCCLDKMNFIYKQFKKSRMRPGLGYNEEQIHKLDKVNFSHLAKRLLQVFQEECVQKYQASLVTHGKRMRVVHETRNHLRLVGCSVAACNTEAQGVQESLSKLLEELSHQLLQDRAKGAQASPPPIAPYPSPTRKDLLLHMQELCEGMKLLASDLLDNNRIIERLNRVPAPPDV

Structure (SMILES): COc1nc(Nc2cc(-c3ccc(OC4CCN(C(=O)c5cnco5)CC4)c(C#N)c3)ncn2)ccc1N1CCN(C)CC1 [Example 56, 5-(6-[[6-methoxy-5-(4-methylpiperazin-1-yl)pyridin-2-yl]amino]pyrimidin-4-yl)-2-([1-[(1,3-oxazol-5-yl)carbonyl]piperidin-4-yl]oxy)benzonitrile]
- IC50 (IKKe): < 100 nM
- IC50 (TBK1): < 100 nM

Structure (SMILES): COc1nc(Nc2cc(-c3ccc(O[C@H]4CCN(C(=O)c5cnn[nH]5)C[C@H]4F)c(C#N)c3)ncn2)ccc1N1CCN(C)CC1 [Example 57, 2-[[(3R,4S)-3-fluoro-1-[(1H-1,2,3-triazol-5-yl)carbonyl]piperidin-4-yl]oxy]-5-(6-[[6-methoxy-5-(4-methylpiperazin-1-yl)pyridin-2-yl]amino]pyrimidin-4-yl)benzonitrile]
- IC50 (IKKe): < 100 nM
- IC50 (TBK1): < 100 nM

Structure (SMILES): COc1nc(Nc2cc(-c3ccc(OC4CCN(C)CC4(F)F)c(C#N)c3)ncn2)ccc1N1CCN(C)CC1 (centres unmarked) [Example 58, 2-[(3,3-difluoro-1-methylpiperidin-4-yl)oxy]-5-(6-[[6-methoxy-5-(4-methylpiperazin-1-yl)pyridin-2-yl]amino]pyrimidin-4-yl)benzonitrile]
- IC50 (IKKe): < 100 nM
- IC50 (TBK1): < 100 nM

Structure (SMILES): COc1nc(Nc2cc(-c3ccc(OC4CCN(C(=O)CO)CC4(F)F)c(C#N)c3)ncn2)ccc1N1CCN(C)CC1 (centres unmarked) [Example 59, 2-[[3,3-difluoro-1-(2-hydroxyacetyl)piperidin-4-yl]oxy]-5-(6-[[6-methoxy-5-(4-methylpiperazin-1-yl)pyridin-2-yl]amino]pyrimidin-4-yl)benzonitrile]
- IC50 (IKKe): < 100 nM
- IC50 (TBK1): < 100 nM

Structure (SMILES): COc1nc(Nc2cc(-c3ccc(O[C@H]4CCN(C(=O)CO)CC4(F)F)c(C#N)c3)ncn2)ccc1N1CCN(C)CC1 [Example 60, 2-[[(4S)-3,3-difluoro-1-(2-hydroxyacetyl)piperidin-4-yl]oxy]-5-(6-[[6-methoxy-5-(4-methylpiperazin-1-yl)pyridin-2-yl]amino]pyrimidin-4-yl)benzonitrile]
- IC50 (IKKe): < 100 nM
- IC50 (TBK1): < 100 nM

Structure (SMILES): COc1nc(Nc2cc(-c3ccc(OC4CCN(C(=O)[C@H](C)O)CC4(F)F)c(C#N)c3)ncn2)ccc1N1CCN(C)C[C@@H]1C (stereo partly drawn) [Example 62, 2-([3,3-difluoro-1-[(2S)-2-hydroxypropanoyl]piperidin-4-yl]oxy)-5-[6-([5-[(2S)-2,4-dimethylpiperazin-1-yl]-6-methoxypyridin-2-yl]amino)pyrimidin-4-yl]benzonitrile hydrochloride]
- IC50 (IKKe): < 100 nM
- IC50 (TBK1): < 100 nM

Structure (SMILES): COc1nc(Nc2cc(-c3ccc(OC4CCN(C(=O)[C@@H](C)O)CC4(F)F)c(C#N)c3)ncn2)ccc1N1CCN(C)C[C@@H]1C (stereo partly drawn) [Example 63, 2-([3,3-difluoro-1-[(2R)-2-hydroxypropanoyl]piperidin-4-yl]oxy)-5-[6-([5-[(2S)-2,4-dimethylpiperazin-1-yl]-6-methoxypyridin-2-yl]amino)pyrimidin-4-yl]benzonitrile hydrochloride]
- IC50 (IKKe): < 100 nM
- IC50 (TBK1): < 100 nM

Structure (SMILES): COc1nc(Nc2cc(-c3ccc(OC4CCNCC4(F)F)c(C#N)c3)ncn2)ccc1N1CCN(C)C[C@H]1C (stereo partly drawn) [Example 64, 2-[(3,3-difluoropiperidin-4-yl)oxy]-5-[6-({5-[(2R)-2,4-dimethylpiperazin-1-yl]-6-methoxypyridin-2-yl}amino)pyrimidin-4-yl]benzonitrile]
- IC50 (IKKe): < 100 nM
- IC50 (TBK1): < 100 nM

Structure (SMILES): COc1nc(Nc2cc(-c3ccc(OC4CCN(C(=O)[C@H](C)O)CC4(F)F)c(C#N)c3)ncn2)ccc1N1CCN(C)C[C@H]1C (stereo partly drawn) [Example 65, 2-([3,3-difluoro-1-[(2S)-2-hydroxypropanoyl]piperidin-4-yl]oxy)-5-[6-([5-[(2R)-2,4-dimethylpiperazin-1-yl]-6-methoxypyridin-2-yl]amino)pyrimidin-4-yl]benzonitrile hydrochloride]
- IC50 (IKKe): < 100 nM
- IC50 (TBK1): < 100 nM

Structure (SMILES): COc1nc(Nc2cc(-c3ccc(OC4CCN(C(=O)[C@@H](C)O)CC4(F)F)c(C#N)c3)ncn2)ccc1N1CCN(C)C[C@H]1C (stereo partly drawn) [Example 66, 2-([3,3-difluoro-1-[(2R)-2-hydroxypropanoyl]piperidin-4-yl]oxy)-5-[6-([5-[(2R)-2,4-dimethylpiperazin-1-yl]-6-methoxypyridin-2-yl]amino)pyrimidin-4-yl]benzonitrile hydrochloride]
- IC50 (IKKe): < 100 nM
- IC50 (TBK1): < 100 nM

Structure (SMILES): COc1nc(Nc2cc(-c3ccc(OC4CCNCC4(F)F)c(C#N)c3)ncn2)ccc1N1CCN(C2COC2)C[C@@H]1C (stereo partly drawn) [Example 67, 2-[(3,3-difluoropiperidin-4-yl)oxy]-5-[6-({6-methoxy-5-[(2S)-2-methyl-4-(oxetan-3-yl)piperazin-1-yl]pyridin-2-yl}amino)pyrimidin-4-yl]benzonitrile]
- IC50 (IKKe): < 100 nM
- IC50 (TBK1): < 100 nM

Structure (SMILES): COc1nc(Nc2cc(-c3ccc(OC4CCN(C(=O)[C@@H](C)O)CC4(F)F)c(C#N)c3)ncn2)ccc1N1CCN(C2COC2)C[C@@H]1C (stereo partly drawn) [Example 68, 2-([3,3-difluoro-1-[(2R)-2-hydroxypropanoyl]piperidin-4-yl]oxy)-5-[6-([6-methoxy-5-[(2S)-2-methyl-4-(oxetan-3-yl)piperazin-1-yl]pyridin-2-yl]amino)pyrimidin-4-yl]benzonitrile]
- IC50 (IKKe): < 100 nM
- IC50 (TBK1): < 100 nM

Structure (SMILES): COc1nc(Nc2cc(-c3ccc(OC4CCNCC4(F)F)c(C#N)c3)ncn2)ccc1N1CCN(C2COC2)C[C@H]1C (stereo partly drawn) [Example 69, 2-[(3,3-difluoropiperidin-4-yl)oxy]-5-[6-({6-methoxy-5-[(2R)-2-methyl-4-(oxetan-3-yl)piperazin-1-yl]pyridin-2-yl}amino)pyrimidin-4-yl]benzonitrile]
- IC50 (IKKe): < 100 nM
- IC50 (TBK1): < 100 nM

Structure (SMILES): COc1nc(Nc2cc(-c3ccc(OC4CCN(C(=O)[C@@H](C)O)CC4(F)F)c(C#N)c3)ncn2)ccc1N1CCN(C2COC2)C[C@H]1C (stereo partly drawn) [Example 70, 2-([3,3-difluoro-1-[(2R)-2-hydroxypropanoyl]piperidin-4-yl]oxy)-5-[6-([6-methoxy-5-[(2R)-2-methyl-4-(oxetan-3-yl)piperazin-1-yl]pyridin-2-yl]amino)pyrimidin-4-yl]benzonitrile]
- IC50 (IKKe): < 100 nM
- IC50 (TBK1): < 100 nM

Structure (SMILES): COc1nc(Nc2cc(-c3ccc(OC4CCN(C(=O)[C@H](C)O)CC4(F)F)c(C#N)c3)ncn2)ccc1N1CCN(C2COC2)C[C@H]1C (stereo partly drawn) [Example 71, 2-([3,3-difluoro-1-[(2S)-2-hydroxypropanoyl]piperidin-4-yl]oxy)-5-[6-([6-methoxy-5-[(2R)-2-methyl-4-(oxetan-3-yl)piperazin-1-yl]pyridin-2-yl]amino)pyrimidin-4-yl]benzonitrile]
- IC50 (IKKe): < 100 nM
- IC50 (TBK1): < 100 nM

Structure (SMILES): COc1nc(Nc2cc(-c3ccc(OC4CCN(C(=O)[C@H](C)O)CC4(F)F)c(C#N)c3)ncn2)ccc1N1CCN(C2COC2)C[C@@H]1C (stereo partly drawn) [Example 72, 2-([3,3-difluoro-1-[(2S)-2-hydroxypropanoyl]piperidin-4-yl]oxy)-5-[6-([6-methoxy-5-[(2S)-2-methyl-4-(oxetan-3-yl)piperazin-1-yl]pyridin-2-yl]amino)pyrimidin-4-yl]benzonitrile]
- IC50 (IKKe): < 100 nM
- IC50 (TBK1): < 100 nM

Structure (SMILES): COc1nc(Nc2cc(-c3ccc(OC4CCNCC4(F)F)c(C#N)c3)ncn2)ccc1N1CCN(C)[C@H](C)C1 (stereo partly drawn) [Example 73, 2-[(3,3-difluoropiperidin-4-yl)oxy]-5-[6-({5-[(3R)-3,4-dimethylpiperazin-1-yl]-6-methoxypyridin-2-yl}amino)pyrimidin-4-yl]benzonitrile]
- IC50 (IKKe): < 100 nM
- IC50 (TBK1): < 100 nM

Structure (SMILES): COc1nc(Nc2cc(-c3ccc(OC4CCN(C(=O)[C@H](C)O)CC4(F)F)c(C#N)c3)ncn2)ccc1N1CCN(C)[C@H](C)C1 (stereo partly drawn) [Example 74, 2-([3,3-difluoro-1-[(2S)-2-hydroxypropanoyl]piperidin-4-yl]oxy)-5-[6-([5-[(3R)-3,4-dimethylpiperazin-1-yl]-6-methoxypyridin-2-yl]amino)pyrimidin-4-yl]benzonitrile hydrochloride]
- IC50 (IKKe): < 100 nM
- IC50 (TBK1): < 100 nM

Structure (SMILES): COc1nc(Nc2cc(-c3ccc(OC4CCN(C(=O)[C@@H](C)O)CC4(F)F)c(C#N)c3)ncn2)ccc1N1CCN(C)[C@H](C)C1 (stereo partly drawn) [Example 75, 2-([3,3-difluoro-1-[(2R)-2-hydroxypropanoyl]piperidin-4-yl]oxy)-5-[6-([5-[(3R)-3,4-dimethylpiperazin-1-yl]-6-methoxypyridin-2-yl]amino)pyrimidin-4-yl]benzonitrile hydrochloride]
- IC50 (IKKe): < 100 nM
- IC50 (TBK1): < 100 nM

Structure (SMILES): COc1nc(Nc2cc(-c3ccc(OC4CCNCC4(F)F)c(C#N)c3)ncn2)ccc1N1CCN(C2COC2)CC1 (centres unmarked) [Example 76, 2-[(3,3-difluoropiperidin-4-yl)oxy]-5-[6-({6-methoxy-5-[4-(oxetan-3-yl)piperazin-1-yl]pyridin-2-yl}amino)pyrimidin-4-yl]benzonitrile]
- IC50 (IKKe): < 100 nM
- IC50 (TBK1): < 100 nM

Structure (SMILES): COc1nc(Nc2cc(-c3ccc(OC4CCN(C(=O)[C@@H](C)O)CC4(F)F)c(C#N)c3)ncn2)ccc1N1CCN(C2COC2)CC1 (stereo partly drawn) [Example 77, 2-([3,3-difluoro-1-[(2R)-2-hydroxypropanoyl]piperidin-4-yl]oxy)-5-[6-([6-methoxy-5-[4-(oxetan-3-yl)piperazin-1-yl]pyridin-2-yl]amino)pyrimidin-4-yl]benzonitrile]
- IC50 (IKKe): < 100 nM
- IC50 (TBK1): < 100 nM

Structure (SMILES): COc1nc(Nc2cc(-c3ccc(OC4CCN(C(=O)[C@H](C)O)CC4(F)F)c(C#N)c3)ncn2)ccc1N1CCN(C2COC2)CC1 (stereo partly drawn) [Example 78, 2-([3,3-difluoro-1-[(2S)-2-hydroxypropanoyl]piperidin-4-yl]oxy)-5-[6-([6-methoxy-5-[4-(oxetan-3-yl)piperazin-1-yl]pyridin-2-yl]amino)pyrimidin-4-yl]benzonitrile]
- IC50 (IKKe): < 100 nM
- IC50 (TBK1): < 100 nM
